Source: ChEMBL document CHEMBL4270546, “A novel Anti-Cancer Stem Cells compound optimized from the natural symplostatin 4 scaffold inhibits Wnt/β-catenin signaling pathway” (Eur J Med Chem, 2018)

Tests used:
Assay type in all cases: functional, cell-based
MCF7 = assay: Antiproliferative activity against human MCF7 cells after 48 hrs by MTT assay; details: MCF7, 48 h
MDA-MB-231 = assay: Antiproliferative activity against human MDA-MB-231 cells after 48 hrs by MTT assay; details: MDA-MB-231, 48 h
4T1 = assay: Antiproliferative activity against mouse 4T1 cells after 48 hrs by MTT assay; details: 4T1, 48 h
A-375 = assay: Antiproliferative activity against human A375 cells after 48 hrs by MTT assay; details: A-375, 48 h
B16-F10 = assay: Antiproliferative activity against mouse B16F10 cells after 48 hrs by MTT assay; details: B16-F10, 48 h
PANC-1 = assay: Antiproliferative activity against human PANC1 cells after 48 hrs by MTT assay; details: PANC-1, 48 h
A549 = assay: Antiproliferative activity against human A549 cells after 48 hrs by MTT assay; details: A549, 48 h
HeLa = assay: Antiproliferative activity against human HeLa cells
HT-29 = assay: Antiproliferative activity against human HT-29 cells

Row | Structure (SMILES) | IC50 (MCF7) | IC50 (MDA-MB-231) | IC50 (4T1) | IC50 (A-375) | IC50 (B16-F10) | IC50 (PANC-1) | IC50 (A549) | IC50 (HeLa) | IC50 (HT-29)
1 | CC[C@H](C)[C@H](NC(=O)OCc1ccccc1)C(=O)N[C@@H](CC(C)C)C(=O)N[C@@H](CC(C)C)C(=O)N[C@@H](C)/C=C/C(=O)N1C(=O)C=C(OC)[C@@H]1C | 4.66 µM | 1.96 µM | 1.92 µM | 1.35 µM | 0.892 µM | 0.787 µM | 15.1 µM |  | 
2 | CC[C@H](C)[C@H](NC(=O)OCc1ccccc1)C(=O)N[C@@H](CC(C)C)C(=O)N[C@@H](CC(C)C)C(=O)N[C@@H](C)/C=C/C(=O)N1C(=O)C=C(OC)[C@@H]1c1c[nH]c2ccccc12 | > 100 µM | > 100 µM | > 100 µM | > 100 µM | > 100 µM | > 100 µM | > 100 µM |  | 
3 | COC1=CC(=O)N(C(=O)/C=C/[C@H](C)NC(=O)[C@H](CC(C)C)N(C)C)[C@H]1C | 75.1 µM | 79.7 µM | 19.2 µM | 11.4 µM | 29.2 µM | 82.1 µM | 30 µM |  | 
4 | COC1=CC(=O)N(C(=O)/C=C/[C@H](C)NC(=O)[C@H](CC(C)C)N(C)C)[C@H]1Cc1ccccc1 | > 100 µM | 57.7 µM | > 100 µM | > 100 µM | > 100 µM | 67 µM | > 100 µM |  | 
5 | CC[C@H](C)[C@H](NC(=O)OCc1ccccc1)C(=O)O[C@@H](CC(C)C)C(=O)N[C@@H](CC(C)C)C(=O)N[C@@H](C)/C=C/C(=O)N1C(=O)C=C(OC)[C@@H]1C(C)C | 21.2 µM | 12.8 µM | 27.9 µM | 13.7 µM | 24.9 µM | 19.6 µM | 27.5 µM |  | 
6 | CC[C@H](C)[C@H](NC(=O)Nc1ccc(OC)cc1)C(=O)N[C@@H](CC(C)C)C(=O)N[C@@H](CC(C)C)C(=O)N[C@@H](C)/C=C/C(=O)N1C(=O)C=C(OC)[C@@H]1C(C)C | 10.1 µM | 25.1 µM | 35.3 µM | 44.2 µM | 60.5 µM | > 100 µM | 20.8 µM |  | 
7 | CC[C@H](C)[C@H](NC(=O)OCc1ccccc1)C(=O)O[C@@H](CC(C)C)C(=O)N[C@@H](CC(C)C)C(=O)N[C@@H](C)/C=C/C(=O)N1C(=O)C=C(OC)[C@@H]1Cc1ccccc1 | > 100 µM | > 100 µM | 79.8 µM | 45.9 µM | 30.1 µM | 59.3 µM | 41.4 µM |  | 
8 | CC[C@H](C)[C@@H](C(=O)O[C@@H](CC(C)C)C(=O)N[C@@H](CC(C)C)C(=O)N[C@@H](C)/C=C/C(=O)OC)N(C)C | > 100 µM | > 100 µM | > 100 µM | > 100 µM | > 100 µM | > 100 µM | > 100 µM |  | 
9 | CC[C@H](C)[C@@H](C(=O)O[C@@H](CC(C)C)C(=O)N[C@@H](CC(C)C)C(=O)N[C@@H](C)/C=C/C(=O)N(CC)CC)N(C)C | > 100 µM | > 100 µM | > 100 µM | > 100 µM | > 100 µM | > 100 µM | > 100 µM |  | 
10 | CC[C@H](C)[C@@H](C(=O)O[C@@H](CC(C)C)C(=O)N[C@@H](CC(C)C)C(=O)N[C@@H](C)/C=C/C(=O)NC(C)(C)C)N(C)C | > 100 µM | > 100 µM | > 100 µM | > 100 µM | > 100 µM | 38.3 µM | > 100 µM |  | 
11 | CC[C@H](C)[C@@H](C(=O)N[C@@H](CC(C)C)C(=O)N[C@@H](CC(C)C)C(=O)N[C@@H](C)/C=C/C(=O)N1C(=O)C=C(OC)[C@@H]1C(C)C)N(C)C | > 100 µM | 98.3 µM | 27.6 µM | 35.7 µM | 61.6 µM | 36 µM | 52.5 µM |  | 
12 | CC[C@H](C)[C@H](NC(=O)OCc1ccccc1)C(=O)O[C@@H](CC(C)C)C(=O)N[C@@H](CC(C)C)C(=O)N[C@@H](C)/C=C/C(=O)N1C(=O)C=C(OC)[C@@H]1C | 32.9 µM | 15.6 µM | 15 µM | 5.49 µM | 4.23 µM | 14 µM | 13.8 µM |  | 
13 | COC1=CC(=O)N(C(=O)/C=C/[C@H](C)NC(=O)[C@H](CC(C)C)N(C)C)[C@H]1C(C)C | 18.6 µM | 89.5 µM | > 100 µM | 7.56 µM | 30.5 µM | 12.8 µM | > 100 µM |  | 
14 | CC[C@H](C)[C@@H](C(=O)O[C@@H](CC(C)C)C(=O)N[C@@H](CC(C)C)C(=O)N[C@@H](C)/C=C/C(=O)N1C(=O)C=C(OC)[C@@H]1C)N(C)C [GALLINAMIDE A] | 45.5 µM | 34.9 µM | 34.6 µM | 45.6 µM | 59.7 µM | 31.2 µM | 40.4 µM | 12 µM | 53 µM
15 | C#CCCC(=O)N[C@H](C(=O)N[C@@H](CC(C)C)C(=O)N[C@@H](CC(C)C)C(=O)N[C@@H](C)/C=C/C(=O)N1C(=O)C=C(OC)[C@@H]1C(C)C)[C@@H](C)CC | 14.9 µM | 22.2 µM | 20.1 µM | 9.89 µM | 7.07 µM | 5.21 µM | 36.2 µM |  | 
16 | COC1=CC(=O)N(C(=O)/C=C/[C@H](C)NC(=O)[C@H](CC(C)C)N(C)C)[C@@H]1Cc1ccccc1 | > 100 µM | 94.8 µM | > 100 µM | > 100 µM | > 100 µM | 86.9 µM | > 100 µM |  | 
17 | CC[C@H](C)[C@@H](C(=O)N[C@@H](CC(C)C)C(=O)N[C@@H](CC(C)C)C(=O)N[C@@H](C)/C=C/C(=O)N1C(=O)C=C(OC)[C@@H]1C)N(C)C | 38.9 µM | 38.2 µM | 16.5 µM | 11.2 µM | 15.1 µM | 15.7 µM | 50.5 µM |  | 
18 | CC[C@H](C)[C@H](NC(=O)OCc1ccccc1)C(=O)N[C@@H](CC(C)C)C(=O)N[C@@H](CC(C)C)C(=O)N[C@@H](C)/C=C/C(=O)N1C(=O)C=C(OC)[C@@H]1Cc1ccccc1 | > 100 µM | > 100 µM | > 100 µM | > 100 µM | > 100 µM | > 100 µM | > 100 µM |  | 
19 | CC[C@H](C)[C@H](NC(=O)Cc1cccc(C(F)(F)F)c1)C(=O)N[C@@H](CC(C)C)C(=O)N[C@@H](CC(C)C)C(=O)N[C@@H](C)/C=C/C(=O)N1C(=O)C=C(OC)[C@@H]1C(C)C | 11.2 µM | 32.8 µM | 40.8 µM | 15.2 µM | 15.2 µM | 11.6 µM | 14.6 µM |  | 
20 | CC[C@H](C)[C@@H](C(=O)O[C@@H](CC(C)C)C(=O)N[C@@H](CC(C)C)C(=O)N[C@@H](C)/C=C/C(=O)N1CCOCC1)N(C)C | > 100 µM | > 100 µM | > 100 µM | > 100 µM | > 100 µM | > 100 µM | > 100 µM |  | 
